Like-named read-outs stand apart in the source and are kept apart here.
What was measured:
[1] = Solubility assays in simulated gastric and simulated intestinal fluids; type: physicochemical; settings: thermodynamic from solid, 2-5 days
Experimental: Test compounds were dissolved in DMSO at a concentration of 10 mM. The test compounds were dispensed (20 μL) into Nunc 1-mL-96-Deep-Well-PP plates, and the DMSO was evaporated via nitrogen blow down from a TurboVap 96 for 6 hours or until a dry residue was produced. Then, 400 μL of solubility media was added to the well containing the dry solid. […] After the incubation period, the samples were filtered through an AcroPrep 1-mL-96-Filter plate into a new 2-mL-96-Deep-Well-PP plate, and the supernatants were quantified by UV-HPLC using a 3-point calibration ranging from 0.004-0.55 mM. The solubility for each compound was calculated from the following equation: […] Solubilities are reported as long as the compound under study was sufficiently stable to complete the corresponding solubility determination.

[2] = tested on: GM-CSF pSTAT5 (JAK2/JAK2); assay: GM-CSF pSTAT5 (JAK2/JAK2) cellular assay (AlphaLISA, PBMCs); type: cell-based; settings: PBMC, GM-CSF at 11 pg/mL
Experimental: The AlphaLISA assay (based on Alpha Technology from PerkinElmer) was performed by first plating freshly thawed PBMCs (Biological Specialty Corporation) in 384-well plates at 30,000 cells per 4 µL per well in HBSS containing 0.1% IgG-free, protease-free BSA (Jackson ImmunoResearch Cat. No. 001-000-161). The cells were then treated with 2 μL/well of compounds diluted in DMSO at half-log titrated concentrations, with a highest test concentration of […] and 0.5% final DMSO concentration, for thirty minutes at 37° C. Next, the cells were stimulated with 2 μL/well of GM-CSF (R&D Systems Cat. No. 215-GM-050) at 11 pg/mL for fifteen minutes at 37° C. The cellular reactions were terminated by the addition of 2 µL/well of lysis buffer (PerkinElmer Cat. No. ALSU-PST5-A10K) followed by an incubation of five minutes at room temperature. 5 μL/well of acceptor mix (PerkinElmer Cat. No. ALSU-PST5-A10K) was added to the cells and incubated in the dark for one hour at room temperature. Then, 5 μL/well of donor mix (PerkinElmer Cat. No. ALSU-PST5-A10K) was added to the cells and incubated in the dark overnight at room temperature. Finally, the plates were read on a PerkinElmer EnVision for detection of the time-resolved fluorescence signal. The percentage of GM-CSF-dependent pSTAT5 inhibition was determined at the compound test concentrations; and for each compound, a dose curve was generated and the IC50 was calculated. Compound IC50 was calculated by nonlinear regression, sigmoidal dose response analysis of the half-log dilution titration curve of the compound concentration vs. Alpha signal. The term “Alpha” is defined in the IL-2 pSTAT5 (JAK1/JAK3) cellular assay description.

IL-2 pSTAT5 (JAK1/JAK3) = IL-2 pSTAT5 (JAK1/JAK3) cellular assay (AlphaLISA, PBMCs); type: cell-based; settings: PBMC, IL-2 at 5 ng/mL
Experimental: The AlphaLISA assay (based on Alpha Technology from PerkinElmer) was performed by first plating freshly thawed PBMCs (Biological Specialty Corporation) in 384-well plates at 30,000 cells per 4 μL per well in HBSS (Hanks' Balanced Salt Solution) containing 0.1% IgG (immunoglobulin G)-free, protease-free BSA (bovine serum albumin) (Jackson ImmunoResearch Cat. No. 001-000-161). The cells were then treated with 2 μL/well of compounds diluted in DMSO at half-log titrated concentrations, with a highest test concentration of 10 μM and 0.5% final DMSO concentration, for thirty minutes at 37° C. […] Compound IC50 was calculated by nonlinear regression, sigmoidal dose response analysis of the half-log dilution titration curve of the compound concentration vs. Alpha signal. The acronym “Alpha” stands for amplified luminescent proximity homogeneous assay; the Alpha signal is a luminescent/fluorescent signal.

P-gp (MDR1) = assay: MDCK-MDR1 permeability assay; type: in vitro ADME; settings: dog; for Papp A→B at 60 min, 5 μM / Papp B→A at 60 min, 5 μM: MDCK-MDR1, pH 7.4, @ 5 μM; for Papp A→B at 60 min, 5 μM: apical to basolateral, without P-gp inhibitor; for Papp B→A at 60 min, 5 μM: basolateral to apical; for efflux ratio at 60 min, 5 μM: MDCK-MDR1, pH 7.4, MDCK-MDR1, 5 μM, read-out: Papp(B-A)/Papp(A-B) (efflux ratio)
Experimental: Permeability measurements were conducted according to the Cyprotex protocol using the MDCK-MDR1 cell line obtained from the NIH (Rockville, Md., USA). Cells between passage numbers 6-30 were seeded onto a Multiscreen Plate™ (Millipore) at a cell density of 3.4×10^5 cells/cm^2 and cultured for three days before permeability studies were conducted. The cells in this assay form a cohesive sheet of a single cell layer filing the surface area of the culture dish, also known as a confluent monolayer, and on day four the test compound was added to the apical side of the membrane and the transport of the compound across the monolayer was monitored over a time period of 60 min.
Test compounds were dissolved in DMSO at a concentration of 10 mM. The dosing solutions were prepared by diluting test compound with assay buffer (Hanks Balanced Salt Solution), pH 7.4, at a final concentration of 5 μM. For assessment of apical to basolateral (“A-B”) permeability, buffer was removed from the apical compartment and replaced with test compound dosing solution with or without the permeability glycoprotein (“PgP”, “P-gP”, “Pgp” or “P-gp”) inhibitor elacridar (2 μM). For assessment of basolateral to apical (“B-A”) permeability, buffer was removed from the companion plate and replaced with test compound dosing solution. Incubations were carried out in duplicate at 37° C. in an atmosphere of 5% CO2 with a relative humidity of 95%. Each assay included the reference markers propranolol (high permeability) and prazosin (PgP substrate). After incubation for 60 minutes, apical and basolateral samples were diluted and test compounds quantified by LC/MS/MS using an 8-point calibration in the range 0.0039 to 3 μM with appropriate dilution of the samples (receiver dilution factor=1; donor and C0 dilution factor=10). The permeability coefficient (Papp) for each compound was calculated from the following equation: Papp=(dQ/dt)/(C0×S), where dQ/dt is the rate of permeation of the drug across the cells, C0 is the donor compartment concentration at time zero, and S is the area of the cell monolayer.
The second and third columns in Table 7 show the values of Papp(A-B) for the apical-to-basolateral compound transport without (second column) and with a P-gp inhibitor (third column, noted as P^eapp(A-B)) that was elacridar. Papp(A-B) gives an indication of permeation extent across the cells in this assay, which is envisaged to model the transcellular transport across Pgp-expressing cells, such as Pgp-expressing gastrointestinal tract cells. P^eapp(A-B) values (Papp(A-B) in the presence of the P-gp inhibitor) given in column 3 are determined to confirm the role of P-gp in the compound efflux. […] Test compound efflux ratios are given in the fifth column of Table 7 as Papp(B-A)/Papp(A-B) by using the corresponding permeability coefficient values from the fourth and second columns in the same table.

[3] = fassif, simulated intestinal fluid, fasted state pH 6.5, ambient temperature, read-out: SIF solubility
[4] = simulated gastric fluid, ambient temperature, read-out: SGF solubility

SMILES | solubility [1, 3] [µM] | solubility [1, 4] [µM] | IC50 [2] [µM] | IC50 (IL-2 pSTAT5 (JAK1/JAK3)) [µM] | Papp A→B at 60 min, 5 μM (P-gp (MDR1)) [nm/s] | Papp B→A at 60 min, 5 μM (P-gp (MDR1)) [nm/s] | efflux ratio at 60 min, 5 μM (P-gp (MDR1))
N#CC[C@H]1CC[C@H](n2c(CC(=O)NCC3CCOCC3)nc3cnc4[nH]ccc4c32)CC1 [Ex. 10, 2-(1-((1r,4r)-4-(Cyanomethyl)cyclohexyl)-1,6-dihydroimidazo[4,5-d]pyrrolo[2,3-b]pyridin-2-yl)-N-((tetrahydro-2H-pyran-4-yl)methyl)acetamide] | > 400 | > 400 | 0.0251 | 0.0067 | < 3 | 25 | > 8.4
N#CCC12CCC(NC(=O)Cc3nc4cnc5[nH]ccc5c4n3[C@H]3CC[C@H](CC#N)CC3)(CC1)C2 [Ex. 55, N-(4-(Cyanomethyl)bicyclo[2.2.1]heptan-1-yl)-2-(1-((1r,4r)-4-(cyanomethyl)cyclohexyl)-1,6-dihydroimidazo[4,5-d]pyrrolo[2,3-b]pyridin-2-yl)acetamide] | – | > 400 | 0.0446 | 0.0168 | < 4 | 71 | > 16.9
N#CC[C@H]1CC[C@H](n2c(CC(=O)NCC3CC3)nc3cnc4[nH]ccc4c32)CC1 [Ex. 3, 2-(1-((1r,4r)-4-(Cyanomethyl)cyclohexyl)-1,6-dihydroimidazo[4,5-d]pyrrolo[2,3-b]pyridin-2-yl)-N-(cyclopropylmethyl)acetamide] | > 400 | > 400 | 0.0219 | 0.0064 | < 4 | 170 | > 41
N#CCC1CCC(n2c(-c3c[nH]cn3)nc3cnc4[nH]ccc4c32)CC1 (stereo not shown) [Ex. 2, 2-((1r,4r)-4-(2-(1H-Imidazol-4-yl)imidazo[4,5-d]pyrrolo[2,3-b]pyridin-1(6H)-yl)cyclohexyl)acetonitrile] | > 400 | > 400 | 0.061 | 0.009 | 11 | 48 | 4.4
CC(C)(C#N)CNC(=O)Cc1nc2cnc3[nH]ccc3c2n1[C@H]1CC[C@H](CC#N)CC1 [Ex. 22, N-(2-Cyano-2-methylpropyl)-2-(1-((1r,4r)-4-(cyanomethyl)cyclohexyl)-1,6-dihydroimidazo[4,5-d]pyrrolo[2,3-b]pyridin-2-yl)acetamide] | – | > 400 | 0.0673 | 0.0097 | < 4 | 36 | > 9
N#CC[C@H]1CC[C@H](n2c(CC(=O)NCC3(O)CCC3)nc3cnc4[nH]ccc4c32)CC1 [Ex. 34, 2-(1-((1r,4r)-4-(Cyanomethyl)cyclohexyl)-1,6-dihydroimidazo[4,5-d]pyrrolo[2,3-b]pyridin-2-yl)-N-((1-hydroxycyclobutyl)methyl)acetamide] | > 400 | > 400 | 0.0338 | 0.0206 | 1 | 17 | 11.5
CC(C)(O)CNC(=O)Cc1nc2cnc3[nH]ccc3c2n1[C@H]1CC[C@H](CC#N)CC1 [Ex. 1, 2-(1-((1r,4r)-4-(Cyanomethyl)cyclohexyl)-1,6-dihydroimidazo[4,5-d]pyrrolo[2,3-b]pyridin-2-yl)-N-(2-hydroxy-2-methylpropyl)acetamide] | – | > 400 | – | – | < 5 | 9 | > 1.9
N#CC[C@H]1CC[C@H](n2c(CC(=O)NCC3(O)CC3)nc3cnc4[nH]ccc4c32)CC1 [Ex. 85, 2-(1-((1r,4r)-4-(Cyanomethyl)cyclohexyl)-1,6-dihydroimidazo[4,5-d]pyrrolo[2,3-b]pyridin-2-yl)-N-((1-hydroxycyclopropyl)methyl)acetamide] | > 400 | > 400 | 0.0754 | 0.0139 | < 5 | 11 | > 2.2
N#CCCNC(=O)Cc1nc2cnc3[nH]ccc3c2n1[C@H]1CC[C@H](CC#N)CC1 [Ex. 4, N-(2-Cyanoethyl)-2-(1-((1r,4r)-4-(cyanomethyl)cyclohexyl)-1,6-dihydroimidazo[4,5-d]pyrrolo[2,3-b]pyridin-2-yl)acetamide] | > 400 | > 400 | 0.119 | 0.0355 | 1 | 13 | 8.7
N#CC[C@H]1CC[C@H](n2c(CC(=O)NC3CCOCC3)nc3cnc4[nH]ccc4c32)CC1 [Ex. 5, 2-(1-((1r,4r)-4-(Cyanomethyl)cyclohexyl)-1,6-dihydroimidazo[4,5-d]pyrrolo[2,3-b]pyridin-2-yl)-N-(tetrahydro-2H-pyran-4-yl)acetamide] | – | > 400 | 0.0289 | 0.0064 | < 4 | 18 | > 4.8

From US10981911B2, “Imidazopyrrolopyridine as inhibitors of the JAK family of kinases” (Janssen Pharmaceutica NV, priority 2016, dated 2021)
